Test results: patent US9765037B2, “Compositions and methods for treating toxoplasmosis, cryptosporidiosis, and other apicomplexan protozoan related diseases” (University of Washington Through its Center for …, priority 2010, dated 2017)
Where two headings read alike, the source gives them in different places.

Columns and labels:
PfCDPK1 = PfCDPK1 (Plasmodium falciparum (isolate 3D7), UniProt P62344); experiment: biochemical
PfCDPK4 = PfCDPK4 (Plasmodium falciparum (isolate 3D7), UniProt Q8IBS5); experiment: biochemical
TgCDPK1 = TgCDPK1 (Toxoplasma gondii, UniProt Q9BJF5); assay type: biochemical
Chain of TgCDPK1 (Q9BJF5 1-507): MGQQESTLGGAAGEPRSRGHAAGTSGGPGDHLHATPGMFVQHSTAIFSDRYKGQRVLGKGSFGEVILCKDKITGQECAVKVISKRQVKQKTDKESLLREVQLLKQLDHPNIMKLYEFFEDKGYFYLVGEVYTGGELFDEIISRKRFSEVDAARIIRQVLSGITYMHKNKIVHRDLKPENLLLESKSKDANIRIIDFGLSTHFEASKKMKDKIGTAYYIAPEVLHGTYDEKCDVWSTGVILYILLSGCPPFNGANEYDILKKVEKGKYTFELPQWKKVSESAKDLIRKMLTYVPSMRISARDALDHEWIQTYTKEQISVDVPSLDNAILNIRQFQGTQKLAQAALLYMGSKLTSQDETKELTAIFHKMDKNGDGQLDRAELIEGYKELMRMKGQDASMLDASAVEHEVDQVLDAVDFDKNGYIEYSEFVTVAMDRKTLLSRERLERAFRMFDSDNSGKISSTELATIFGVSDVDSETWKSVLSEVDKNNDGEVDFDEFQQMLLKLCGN

CpCDPK1 = CpCDPK1 (Cryptosporidium parvum (strain Iowa II), UniProt A3FQ16); experiment: biochemical; assay type: biochemical
Chain of CpCDPK1 (A3FQ16 1-538): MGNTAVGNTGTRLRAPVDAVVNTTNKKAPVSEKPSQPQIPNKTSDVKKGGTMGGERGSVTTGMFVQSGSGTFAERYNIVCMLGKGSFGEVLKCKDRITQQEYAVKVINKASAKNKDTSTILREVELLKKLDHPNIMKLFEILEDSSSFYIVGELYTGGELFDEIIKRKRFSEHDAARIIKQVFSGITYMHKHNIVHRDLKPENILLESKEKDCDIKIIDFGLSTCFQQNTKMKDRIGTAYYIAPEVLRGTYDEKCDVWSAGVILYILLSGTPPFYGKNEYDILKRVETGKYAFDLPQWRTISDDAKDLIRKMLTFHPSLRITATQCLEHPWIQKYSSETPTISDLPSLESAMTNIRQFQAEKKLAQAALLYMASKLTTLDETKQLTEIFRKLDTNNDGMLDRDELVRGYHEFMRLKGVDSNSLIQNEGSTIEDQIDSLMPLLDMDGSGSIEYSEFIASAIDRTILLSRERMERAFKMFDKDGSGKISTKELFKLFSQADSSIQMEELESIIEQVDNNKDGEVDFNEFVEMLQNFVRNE

[1] = Table 8, read-out: IC50 (μM) CpCDPK1

| SMILES | IC50 (TgCDPK1; read-out: IC50 (μM) TgCDPK1) | IC50 (CpCDPK1; [1]) | further results |
| --- | --- | --- | --- |
| CSc1cccc(-c2nn(C(C)C)c3ncnc(N)c23)c1 [Compound 7ab, 1-isopropyl-3-(3-(methylthio)phenyl)-1H-pyrazolo[3,4-d]pyrimidin-4-amine] | 0.056 µM |  | inhibition at 3 µM (PfCDPK1; read-out: PfCDPK1 (% inhibition @ 3 uM)): 85%; inhibition at 3 µM (PfCDPK4; read-out: PfCDPK4 (% inhibition @ 3 uM)): 79%; IC50 (CpCDPK1; read-out: IC50 (μM) CpCDPK1): 0.121 µM |
| COc1ccc(-c2nn(C(C)C)c3ncnc(N)c23)cc1OC [Compound 7k, 3-(3,4-dimethoxyphenyl)-1-isopropyl-1H-pyrazolo[3,4-d]pyrimidin-4-amine] |  | 0.173 µM | EC50 (PfCDPK1): 1360 nM; EC50 (PfCDPK4): > 3 µM; IC50 (TgCDPK1; read-out: TgCDPK1 IC50): 0.037 µM; IC50 (CpCDPK1; read-out: CpCDPK1 IC50): 0.17 µM |
| COc1cc2ccccc2cc1-c1nn(C(C)C)c2ncnc(N)c12 [Compound 7s, 1-isopropyl-3-(3-methoxynaphthalen-2-yl)-1H-pyrazolo[3,4-d]pyrimidin-4-amine] | 0.863 µM | 0.591 µM | IC50 (TgCDPK1; read-out: TgCDPK1 IC50): 0.9 µM; IC50 (CpCDPK1; read-out: CpCDPK1 IC50): 0.6 µM |
| CC(C)n1nc(-c2ccc3c(c2)CCCO3)c2c(N)ncnc21 [Compound 7w, 3-(chroman-6-yl)-1-isopropyl-1H-pyrazolo[3,4-d]pyrimidin-4-amine] | 0.017 µM |  | IC50 (CpCDPK1; read-out: CpCDPK1 IC50): 0.11 µM |
| CC(C)n1nc(-c2cccc3c2sc2ccccc23)c2c(N)ncnc21 [Compound 7x, 3-(dibenzo[b,d]thiophen-4-yl)-1-isopropyl-1H-pyrazolo[3,4-d]pyrimidin-4-amine] | > 3 µM | > 3 µM | IC50 (TgCDPK1; read-out: TgCDPK1 IC50): > 3 µM; IC50 (CpCDPK1; Table 4, average of three assays ± (SEM), read-out: CpCDPK1 IC50): > 3 µM |
| Nc1ncnc2c1c(Cc1cccc3ccccc13)nn2C1CCCC1 [Compound 13, 1-cyclopentyl-3-(naphthalen-1-ylmethyl)-1H-pyrazolo[3,4-d]pyrimidin-4-amine] | 0.553 µM | 0.894 µM |  |
| CC(C)n1nc(Cc2ccc3ccccc3c2)c2c(N)ncnc21 [Compound 14, 1-isopropyl-3-(naphthalen-2-ylmethyl)-1H-pyrazolo[3,4-d]pyrimidin-4-amine] | 0.627 µM | 0.953 µM |  |
| Nc1ncnc2c1c(Cc1cccc3ccccc13)nn2C1CCOCC1 [Compound 15, 3-(naphthalen-1-ylmethyl)-1-(tetrahydro-2H-pyran-4-yl)-1H-pyrazolo[3,4-d]pyrimidin-4-amine] | 0.149 µM | 0.265 µM |  |
| CC(C)n1nc(-c2cccnc2)c2c(N)ncnc21 [Compound 16, 1-isopropyl-3-(pyridin-3-yl)-1H-pyrazolo[3,4-d]pyrimidin-4-amine] | 0.961 µM | > 3 µM |  |
| CC(C)n1nc(-c2cncnc2)c2c(N)ncnc21 [Compound 18, 1-isopropyl-3-(pyrimidin-5-yl)-1H-pyrazolo[3,4-d]pyrimidin-4-amine] | > 3 µM | > 3 µM |  |
| CC(C)n1nc(-c2ccnc(Cl)c2)c2c(N)ncnc21 [Compound 19, 3-(2-chloropyridin-4-yl)-1-isopropyl-1H-pyrazolo[3,4-d]pyrimidin-4-amine] | 0.0638 µM | 0.37 µM |  |
| CC(C)n1nc(-c2cccc(OCc3ccccc3Cl)c2)c2c(N)ncnc21 [Compound 21, 3-(3-(2-chlorobenzyloxy)phenyl)-1-isopropyl-1H-pyrazolo[3,4-d]pyrimidin-4-amine] | > 3 µM | > 3 µM |  |
| COc1cc(COc2cccc(-c3nn(C(C)C)c4ncnc(N)c34)c2)cc(OC)c1 [Compound 22, 3-(3-(3,5-dimethoxybenzyloxy)phenyl)-1-isopropyl-1H-pyrazolo[3,4-d]pyrimidin-4-amine] | 1.14 µM | > 3 µM |  |
| COc1ccc(-c2nn(C(C)C)c3ncnc(N)c23)cc1OC(C)C [Compound 23, 3-(3-isopropoxy-4-methoxyphenyl)-1-isopropyl-1H-pyrazolo[3,4-d]pyrimidin-4-amine] | > 3 µM | > 3 µM |  |
| Nc1ncnc2c1c(Cc1cccc3ccccc13)nn2Cc1c[nH]cn1 [Compound 31, 1-((1H-imidazol-4-yl)methyl)-3-(naphthalen-1-ylmethyl)-1H-pyrazolo[3,4-d]pyrimidin-4-amine] | 0.117 µM | 0.0936 µM |  |
